The target in assay [1] is cpHaloΔ3-SiR. The assay can be described thus: Bio-layer interferometry binding kinetics, biotin-Hpep with cpHaloΔ3-SiR. Particulars: BLI, 25 °C, 1:1 global fit; for Kd: biotin-Hpep 50 nM immobilised, cpHalo∆3-SiR 300–2 nM; for koff / kon: biotin-Hpep, cpHalo∆3-SiR. The procedure: (§1) After incubation, Hpep1 was removed by IMAC purification on a gravity flow column and buffer was exchanged to activity buffer using Amicon Ultra-15 Centrifugal Filter Unit. The protein labeling was verified by SDS-PAGE, comparing Coomassie blue staining and in-gel fluorescence (Supplementary Fig. 19). Protein labeling and Hpep1 removal were further verified by HRMS as previously explained.
(§2) Bio-layer interferometry (BLI) analysis was performed in a 96-well plate using an Octet® R4 system (Sartorius) with an acquisition rate for standard kinetics of 5.0 Hz at 25 °C. […] The raw data was analyzed using Octet® Analysis Studio (Sartorius). For data correction, response curves were baseline-aligned by subtracting the average signal of the baseline step and Savitzky–Golay filtering was used to remove high-frequency noise from the data.

The target in assay [2] is cpHaloΔ3-TMR. As to the kind of experiment: Bio-layer interferometry binding kinetics, biotin-Hpep with cpHaloΔ3-TMR. To be noted: BLI, 25 °C, 1:1 global fit; for Kd: biotin-Hpep 50 nM immobilised, cpHalo∆3-TMR 300–2 nM; for koff / kon: biotin-Hpep, cpHalo∆3-TMR. The method, then:
as §1, §2
On the technique in general: BLI is a label-free optical method that tracks binding on a fibre tip over time.

Assay [3] relates to cpHaloΔ. Also noted: method as in 2 sources, one per row (each row's own in cited_ref): ref 4 (Huppertz et al., Science 2024) ||| ref PhD thesis of Jonas Wilhelm. To be noted: CA-TMR labeling kinetics, TEVp-cleaved cpHalo∆; 500 nM cpHaloΔ protein, 100 nM CA-TMR (EC50 >1 μM); ref 4 (Huppertz et al., Science 2024); read-out: EC50 for the parental cpHalo∆; cited from earlier work.

Residues, ends and D or L forms follow the SMILES beside them. *: point of attachment. Biotin = O=C1N[C@H]2[C@H](CS[C@H]2CCCCC(=O)*)N1

Chain of cpHaloΔ (P0A3G2 4-141 L47V/S58T/D78G/Y87F/L88M/C128F): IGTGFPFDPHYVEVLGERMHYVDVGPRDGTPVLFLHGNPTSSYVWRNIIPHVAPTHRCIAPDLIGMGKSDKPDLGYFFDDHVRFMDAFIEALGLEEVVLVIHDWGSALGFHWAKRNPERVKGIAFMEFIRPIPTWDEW
Chain of cpHaloΔ (P0A3G2 156-290 E160K/A167V/A172T/K175M/C176G/K195N/A224E/N227D/E257K/T264A/H272N/Y273L): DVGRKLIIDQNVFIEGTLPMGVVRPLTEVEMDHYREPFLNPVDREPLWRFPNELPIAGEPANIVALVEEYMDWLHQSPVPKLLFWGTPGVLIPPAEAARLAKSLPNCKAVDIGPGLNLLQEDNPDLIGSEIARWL

For `CSCC[C@H](NC(=O)[C@H](CCC(=O)O)NC(=O)[C@H](CCCNC(=N)N)NC(=O)[C@H](Cc1c[nH]c2ccccc12)NC(=O)[C@H](CO)NC(=O)[C@H](Cc1c[nH]c2ccccc12)NC(=O)CNC(=O)[C@H](CCCNC(=N)N)NC(=O)CCCC[C@@H]1SC[C@@H]2NC(=O)N[C@@H]21)C(=O)N[C@@H](Cc1ccccc1)C(=O)N[C@@H](CCCNC(=N)N)C(=O)N[C@@H](CC(C)C)C(=O)N[C@@H](Cc1ccccc1)C(=O)N[C@@H](CCCNC(=N)N)C(=O)N[C@H](C(=O)O)[C@@H](C)O` [biotin-Hpep9] (Biotin-RGWSWREMFRLFRT-OH), in assay [1], binding was put at a Kd of 0.0188 µM; the koff (as a rule, the first-order rate constant of dissociation) came out at 0.00149 s⁻¹; the kon – broadly, the second-order rate constant of association – was found to be 78900 M⁻¹ s⁻¹. In assay [2], the Kd (commonly the free concentration of one partner at which half of the binding sites on the other are occupied at equilibrium, for simple one-to-one binding) was determined as 0.00486 µM; the off-rate constant (koff) stood at 0.00104 s⁻¹; the kon was found to be 214000 M⁻¹ s⁻¹.
Consider “WRETFQLFRT [Hpep6, previously reported split-HaloTag peptide, […]]”, for which the EC50 – broadly, the concentration giving half of the maximal effect – in assay [3] is 2.39 µM.
As to “AREMFQAFRT [Hpep2, previously reported split-HaloTag peptide, […]]”, the EC50 in assay [3] was 1120 µM.
For the molecule “WKEEVIKAFKLFRD [Hpep4, previously reported split-HaloTag peptide, […]]”, in assay [3], the EC50 was 21 µM.
Turning to “SKRDAREMFQAFRT [Hpep3, previously reported split-HaloTag peptide, […]]”, in assay [3], the EC50 is 149 µM.
In assay [1], `CSCC[C@H](NC(=O)[C@H](CCC(=O)O)NC(=O)[C@H](CCCNC(=N)N)NC(=O)[C@H](Cc1c[nH]c2ccccc12)NC(=O)[C@H](CC(=O)O)NC(=O)[C@H](CCCNC(=N)N)NC(=O)[C@H](CCCCN)NC(=O)[C@H](CO)NC(=O)CCCC[C@@H]1SC[C@@H]2NC(=O)N[C@@H]21)C(=O)N[C@@H](Cc1ccccc1)C(=O)N[C@@H](CCCNC(=N)N)C(=O)N[C@@H](CC(C)C)C(=O)N[C@@H](Cc1ccccc1)C(=O)N[C@@H](CCCNC(=N)N)C(=O)N[C@H](C(=O)O)[C@@H](C)O` [biotin-Hpep11] (Biotin-SKRDWREMFRLFRT-OH) showed a Kd of 0.00427 µM, a koff of 0.000214 s⁻¹ and a kon of 50000 M⁻¹ s⁻¹. Moreover, in assay [2], the Kd worked out at 0.0106 µM, the koff was determined as 0.000687 s⁻¹ and the kon is 64900 M⁻¹ s⁻¹.
In the case of “WREEVRKAFKLFRQ [Hpep5, previously reported split-HaloTag peptide, […]]”, the EC50 in assay [3] was 10.7 µM.
As for “ARETFQAFRT [Hpep1, previously reported split-HaloTag peptide, […]]”, in assay [3], the EC50 is 2980 µM.

The record behind these values is PMC13022382, “A high-affinity split-HaloTag for live-cell protein labeling” (Nature Communications, 2026).
